According to paper PMC11134608, “UBR5 forms ligand-dependent complexes on chromatin to regulate nuclear hormone receptor stability” (Molecular cell, 2023):

What was measured:
[1] = system: UBR5-RARA; experiment: In vitro FLAG-UBR5 pull-down of His-tagged RARA; type: binding, human; conditions: 50 μM ligand, anti-His western, 25 mM HEPES pH 7.4, 125 mM NaCl, 0.05% TWEEN-20
Description: 12 μL of FLAG M2 slurry were equilibrated with binding buffer (25 mM HEPES pH 7.4, 125 mM NaCl, 0.05% TWEEN-20). The resin was pelleted and excess buffer removed. 60 μL of fresh binding buffer was re-added, followed by addition of 15 pmol (2.5 μL ofa6 μM solution) of purified FLAG-UBR5 protein and incubated on a rotating wheel at 4°C for 60–90 minutes. The resin was pelleted, excess buffer removed, and 150 μL fresh binding buffer (supplemented with 50 μM ligand of interest or DMSO) added, followed by 150 pmol protein (binding partner protein of interest) and incubated for another 60 minutes. The resin was pelleted, excess buffer removed and washed with 400 μL of binding buffer (supplemented with ligand of interest or DMSO), and this process was repeated three times. The resin was pelleted, excess buffer removed and 45 μL of binding buffer supplemented with 1 mg/mL 3xFLAG peptide was added to elute proteins over 30 minutes on a rotating wheel at room temperature. The resin was pelleted, and 40 μL of the supernatant was collected and mixed with 12 μL of 5xSDS gel loading buffer. 6 μL of these samples were applied to SDS-PAGE on a 4–20% gradient gel (Biorad). The gel was transferred to a nitrocellulose membrane using the Trans-Blot Turbo Transfer System (Biorad). Following blocking with 5% skim milk solution in TBST, primary antibodies targeting the NR proteins were added in TBST and incubated overnight at 4 °C. The following day, membranes were washed thrice with TBST buffer and incubated for 45 minutes with fluorescent secondary antibody (Invitrogen A11357), followed by three more washes with TBST. Imaging was performed on a Licor Odyssey system, scanned at 800 nm.

[2] = system: UBR5-RARA/RXRA; experiment: In vitro FLAG-UBR5 pull-down of His-tagged RARA/RXRA heterodimer; type: binding, human; conditions: 50 μM ligand, pull-down, anti-His western; 25 mM HEPES pH 7.4, 125 mM NaCl, 0.05% TWEEN-20
Description: The resin was pelleted and excess buffer removed. 60 μL of fresh binding buffer was re-added, followed by addition of 15 pmol (2.5 μL ofa6 μM solution) of purified FLAG-UBR5 protein and incubated on a rotating wheel at 4°C for 60–90 minutes. The resin was pelleted, excess buffer removed, and 150 μL fresh binding buffer (supplemented with 50 μM ligand of interest or DMSO) added, followed by 150 pmol protein (binding partner protein of interest) and incubated for another 60 minutes. The resin was pelleted, excess buffer removed and washed with 400 μL of binding buffer (supplemented with ligand of interest or DMSO), and this process was repeated three times. The resin was pelleted, excess buffer removed and 45 μL of binding buffer supplemented with 1 mg/mL 3xFLAG peptide was added to elute proteins over 30 minutes on a rotating wheel at room temperature. The resin was pelleted, and 40 μL of the supernatant was collected and mixed with 12 μL of 5xSDS gel loading buffer. 6 μL of these samples were applied to SDS-PAGE on a 4–20% gradient gel (Biorad). The gel was transferred to a nitrocellulose membrane using the Trans-Blot Turbo Transfer System (Biorad). Following blocking with 5% skim milk solution in TBST, primary antibodies targeting the NR proteins were added in TBST and incubated overnight at 4 °C. […]

[3] = system: ER; experiment: ER degradation after RNF111 or UBR5 knockdown (reporter K562; T47D western); type: cell-based, human; conditions: K562 ER-GFP, shUBR5 / sgRNF111, Figure S8C, D
Description: Cells were analyzed for GFP vs mCherry expression.
Protein concentration was quantified via Pierce BCA Protein Assay Kit (ThermoFisher, 23225), and equal amounts of lysates were run on either SDS-PAGE 3–8% Tris-Acetate or 4–12% Bis-Tris Protein Gels (NuPAGE, ThermoFisher), then transferred to a PVDF membrane (Biorad, Wet Transfer System). Membranes were blocked for 30 minutes to 1 hour at room temperature in Odyssey Blocking Buffer/PBS (LI-COR Biosciences), and incubated with primary antibodies at 4 °C overnight. Stained membranes were washed three times in Tris-buffered saline with Tween 20 (TBS-T) and incubated for 1 hour at room temperature with secondary IRDye-conjugated antibodies (LI-COR Biosciences). Membranes were washed three times in TBS-T before imaging (Odyssey Imaging System, LI-COR Biosciences).

[4] = system: ER; conditions: ref [17], [53]; cited from earlier work
Text: SERDs are a class of molecules targeting the ER for the treatment of breast cancer. […] Given that UBR5 is similarly recruited to the NR hydrophobic cleft, we hypothesized that fulvestrant and other SERDs may employ a different mechanism for ER degradation. […] One of the best understood SERDs, fulvestrant, drastically remodels the hydrophobic cleft[16],[17] in a manner incompatible with UBR5 or NCOA binding. […] Strikingly, this correlates with clinical utility, hallmarked by the wide use of fulvestrant and recent approval of elacestrant,[53] both of which employ RNF111, in contrast to UBR5 SERDs (Table S2), none of which have been approved for clinical use. The heterogeneity of ER transcriptional pro ...

[5] = system: ER reporter; experiment: ER reporter degradation; type: cell-based, human; conditions: 1 μM (legend, SERDs)
Description: Reporter cell lines were seeded in triplicate at a density of 1 million cells/ml in 100 μl per well in a 96 well plate and measured once. Ligand was added by Digital Dispenser (Tecan), and incubated at 37°C for the appropriate time before reading by flow cytometry. Cells were analyzed for GFP vs mCherry expression. GFP expression was normalized to mCherry signal and ligand treatments were compared to DMSO controls.

[6] = system: ER reporter (E3 ligase dependence); experiment: Targeted CRISPR screens, ER reporter K562 cells: E3 ligase used; type: cell-based, human; conditions: for E3 ligase used for ER degradation: K562 ER reporter, CRISPR screen; for E3 Ligase (Table S2): Supplemental Table S2
Description: To characterize the UPS pathway components involved in SERD-induced ER degradation, we performed CRISPR screens with our ER reporter in the presence multiple SERDs: fulvestrant, GDC-0927, elacestrant, giredestrant, camizestrant, amcenestrant, AZD-9496, brilanestrant, and LSZ-102. […] Taken together, these findings indicate that different classes of SERDs engage distinct ubiquitin ligases and degradation pathways to target ER.
The UPS and tiling CRISPR functional genomics screen was performed following previously described methods.[22] Briefly, the UPS CRISPR library targets 713 E1, E2, E3 ubiquitin ligases, and deubiquitinases and includes controls genes with a total of 2852 guide RNAs, cloned into the pXPR003 backbone. The UBR5 Tiling screen was created by CRISPR-SURF.[29] Viruses were produced in a T-175 format and ten percent by volume of the library virus was added to reporter cell lines in triplicates for transduction. Transduced cells were allowed to recover and expand for nine days, then treated with indicated ligand. Top and bottom 5% of cells by GFP signal were sorted for a total of at least 100,000 cells per replicate. Samples were processed as previously described.[22]
Reporter cell lines were treated with ATRA or 9-cis RA, and then sorted into four populations by eGFP/mCherry fluorescence ratios (Gates A-D), corresponding to the bottom and top 5–10% respectively (Figure S1D).[22],[23] Sorted cells were pelleted, lysed, and processed according to previous studies.[22] Briefly sgRNAs were amplified in two PCRs via Titanium Taq (Takara Bio 639210), Titanium Taq Buffer and 800uM dNTP mix and eight staggered forward primers. The first PCR also contained 200 nM SBS3-Stagger-pXPR003 forward primer and 200 nM SBS12-pXPR003 reverse primer (cycles: 5 minutes at 94°C, 15 × (30 sec at 94°C, 15 sec at 58°C, 30 sec at 72°C), 2 minutes at 72°C). Illumina adapters and barcodes were added in the second PCR (200 nM P5-SBS3 forward primer, 200 nM P7-barcode-SBS12 reverse primer). Samples were pooled and purified by agarose gel-electrophoresis (Qiagen) and NaOAc/isopropanol precipitation. Amplified guides were quantified by next-generation sequencing (Genomics Platform, Broad Institute), and analyzed for enrichment in Gate A over Gate D, representing degradation rescue.

[7] = system: HR+ HER2- advanced breast cancer; conditions: giredestrant, second-line treatment, NCT04576455, ref 6 (supplement); cited from earlier work
Text: page 11: Supplemental Table S2: Clinical Development of Selective Estrogen Receptor Degraders (SERDs), related to Figure 6 Clinical Development Status for HR+ HER2- Advanced Compound Side Chain E3 Ligase Breast Cancer Treatment Fulvestrant Long Alkyl RNF111 FDA approved for first-line and second-line treatments1,2 FDA approved for second-line, ESR1-mutated disease Elacestrant (RAD1901) Basic Amino RNF111 treatment3,4; Ongoing phase III trial for first-line treatment (NCT05512364) Ongoing Phase III trial for first-line treatment Camizestrant (AZD9833) Basic Amino RNF111 (NCT04711252, NCT0496493 ...

Structure (SMILES)	binding of RARA to UBR5 [1]	binding of RARA/RXRA to UBR5 [2]	regulated class of ER degradation (RNF111 or UBR5) [3]	ER degradation (literature) [4]	ER reporter degradation [5]	E3 ligase used for ER degradation [6]	E3 Ligase (Table S2) [6]	clinical trial outcome, phase II [7]
CC1=C(/C=C/C(C)=C\C=C\C(C)=C\C(=O)O)C(C)(C)CCC1 [9-cis RA, 9-cis-retinoic acid]	robustly induced binding of RARA to UBR5							
CC1(C)CC=C(c2cnc3ccccc3c2)c2cc(C(=O)Nc3ccc(C(=O)O)cc3)ccc21 [BMS614]	prevented complex formation	similarly hindered						
CCNCCc1ccc(CN(CC)c2cc(OC)ccc2[C@@H]2CCc3cc(O)ccc3C2)cc1 [elacestrant]			RNF111 Regulated	lead to ER degradation	induced ER reporter degradation	employed a different E3 ligase, RNF111	RNF111	
C[C@@H]1Cc2c([nH]c3ccccc23)[C@@H](c2c(F)cc(NC3CN(CCCF)C3)cc2F)N1CC(F)(F)CO [giredestrant]			RNF111 Regulated		induced ER reporter degradation	employed a different E3 ligase, RNF111	RNF111	Failed primary endpoint in phase II trial
